This data set can be described thus: Cross-over study of drug A blood levels with 1% Softigen or 1% Labrasol formulation. The settings on record: rabbit, in vivo. More on the design: species or system rabbits. Here is the method: In a cross-over study, 4 rabbits received drug A in a formulation containing 1% Softigen® (Sasol GmbH, Germany) (n=4) and 1% Labrasol® (Gattefosse, France) (n=4) and were sampled for blood samples after 0, 2, 5, 10, 15, 30, 45 and 60 min.

Regarding “macrogol-6-glycerol-caprylocaprate [PEG6-CCG]”, the tmax is reported as 6 min.

(Values after US20050063940A1, “Bioadhesive agent” (priority 2002, published 2005).)
